Data from PubChem BioAssay AID330 (DTP/NCI, 2004).
Several values for one entry are separate records, joined by “and”; a condition that tells them apart may be missing. Equal entries are not always repeated. Inconclusive results and toxic doses are left out.

Test system: P388 leukemia ip, CD2F1 mice, survival T/C
Experiment: NCI In Vivo Anticancer Drug Screen. Data for tumor model P388 Leukemia (intraperitoneal) in CD2F1 (CDF1) mice
Settings: endpoint: median survival time, higher = longer survival
Method in brief: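 Mice carrying the transplanted tumor received test compound or vehicle. Survival was recorded in each group, and the value is the treated-group measurement divided by that of the vehicle-treated control group.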

[1] = dose: 50.0 mg/kg/injection, schedule: Q01DX009 (ip), vehicle: saline
[2] = dose: 100.0 mg/kg/injection, schedule: Q01DX009 (ip), vehicle: saline
[3] = dose: 50.0 mg/kg/injection, schedule: Q01DX009 (ip), vehicle: saline with Tween-80
[4] = dose: 100.0 mg/kg/injection, schedule: Q01DX009 (ip), vehicle: saline with Tween-80
[5] = dose: 50.0 mg/kg/injection, schedule: Q01DX005 (ip), vehicle: saline with Tween-80
[6] = dose: 100.0 mg/kg/injection, schedule: Q01DX005 (ip), vehicle: saline with Tween-80
[7] = dose: 50.0 mg/kg/injection, schedule: Q01DX005 (ip), vehicle: Klucel (hydroxypropylcellulose) (HPC)
[8] = dose: 100.0 mg/kg/injection, schedule: Q01DX005 (ip), vehicle: Klucel (hydroxypropylcellulose) (HPC)
[9] = dose: 200.0 mg/kg/injection, schedule: Q01DX005 (ip), vehicle: Klucel (hydroxypropylcellulose) (HPC)

## COC(=O)C1=C[C@H]2O[C@H]2[C@H](O)C1
dose: 1.5 mg/kg/injection, schedule: Q01DX005 (ip), vehicle: Klucel (hydroxypropylcellulose) (HPC)
  T/C: 100 % of control
dose: 3.0 mg/kg/injection, schedule: Q01DX005 (ip), vehicle: Klucel (hydroxypropylcellulose) (HPC)
  T/C: 106 % of control
dose: 6.0 mg/kg/injection, schedule: Q01DX005 (ip), vehicle: Klucel (hydroxypropylcellulose) (HPC)
  T/C: 101 % of control
dose: 12.0 mg/kg/injection, schedule: Q01DX005 (ip), vehicle: Klucel (hydroxypropylcellulose) (HPC)
  T/C: 100 % of control

## COc1ccc2c(c1)-c1nn(CCCN(C)C)c3ccc([N+](=O)[O-])c(c13)N2
dose: 4.5 mg/kg/injection, schedule: Q01DX005 (ip), vehicle: water
  T/C: 169 % of control
dose: 6.25 mg/kg/injection, schedule: Q01DX005 (ip), vehicle: water
  T/C: 189 % of control
dose: 7.5 mg/kg/injection, schedule: Q01DX005 (ip), vehicle: water
  T/C: 181 % of control
dose: 12.5 mg/kg/injection, schedule: Q01DX005 (ip), vehicle: water
  T/C: 213 % of control and 216 % of control and 227 % of control
dose: 21.0 mg/kg/injection, schedule: Q01DX005 (ip), vehicle: water
  T/C: 253 % of control
dose: 25.0 mg/kg/injection, schedule: Q01DX005 (ip), vehicle: water
  T/C: 261 % of control
dose: 35.0 mg/kg/injection, schedule: Q01DX005 (ip), vehicle: water
  T/C: 290 % of control

## CN(C)CCC(=O)c1cccs1
[1]
  T/C: 107 % of control
[2]
  T/C: 105 % of control

## CC(C)N1CCSC1=S
[3]
  T/C: 104 % of control
[4]
  T/C: 90 % of control
dose: 200.0 mg/kg/injection, schedule: Q01DX009 (ip), vehicle: saline with Tween-80
  T/C: 100 % of control

## O=S(=O)(c1ccccc1)[C@H]1[C@@H]2O[C@@H]2C[C@@H]1O
dose: 60.0 mg/kg/injection, schedule: Q01DX005 (ip), vehicle: saline
  T/C: 104 % of control
dose: 120.0 mg/kg/injection, schedule: Q01DX005 (ip), vehicle: saline
  T/C: 103 % of control
dose: 240.0 mg/kg/injection, schedule: Q01DX005 (ip), vehicle: saline
  T/C: 98 % of control

## NC(CCS(=O)(=O)NCc1ccc(S(=O)(=O)F)cc1)C(=O)O (stereo not drawn)
dose: 12.5 mg/kg/injection, schedule: Q01DX009 (ip), vehicle: other
  T/C: 104 % of control
dose: 25.0 mg/kg/injection, schedule: Q01DX009 (ip), vehicle: other
  T/C: 103 % of control
dose: 50.0 mg/kg/injection, schedule: Q01DX009 (ip), vehicle: other
  T/C: 100 % of control
dose: 100.0 mg/kg/injection, schedule: Q01DX009 (ip), vehicle: other
  T/C: 96 % of control
dose: 200.0 mg/kg/injection, schedule: Q01DX009 (ip), vehicle: other
  T/C: 88 % of control

## C(#Cc1ccccc1)/C=C/C(=C\c1ccccc1)c1ccccc1
dose: 12.5 mg/kg/injection, schedule: Q01DX005 (ip), vehicle: saline with Tween-80
  T/C: 101 % of control
dose: 25.0 mg/kg/injection, schedule: Q01DX005 (ip), vehicle: saline with Tween-80
  T/C: 102 % of control
[5]
  T/C: 101 % of control
[6]
  T/C: 100 % of control

## O=C(CCSCCC(=O)N/N=C/C(O)C(O)C(O)CO)N/N=C/C(O)C(O)C(O)CO (stereo not drawn)
[7]
  T/C: 103 % of control and 97 % of control
[8]
  T/C: 99 % of control and 94 % of control
[9]
  T/C: 99 % of control and 95 % of control

## S=C1CC(N2CCCC2)=Nc2ccccc2N1
[7]
  T/C: 100 % of control
[8]
  T/C: 90 % of control
[9]
  T/C: 95 % of control

## O=c1oc2c(cc1Cl)CCCC2
[7]
  T/C: 96 % of control
[8]
  T/C: 101 % of control
[9]
  T/C: 103 % of control

## CCOC(=O)c1c[nH]c(=S)n(CCOC)c1=O
dose: 25.0 mg/kg/injection, schedule: Q01DX009 (ip), vehicle: saline with Tween-80
  T/C: 92 % of control
[3]
  T/C: 108 % of control
[4]
  T/C: 115 % of control

## C[N+]12CCCCC1CC2 (stereo not drawn)
dose: 6.25 mg/kg/injection, schedule: Q01DX009 (ip), vehicle: saline
  T/C: 89 % of control
dose: 12.5 mg/kg/injection, schedule: Q01DX009 (ip), vehicle: saline
  T/C: 88 % of control
dose: 25.0 mg/kg/injection, schedule: Q01DX009 (ip), vehicle: saline
  T/C: 91 % of control

## O=[N+]([O-])c1ccc(-c2nc3ccncc3[nH]2)cc1
[1]
  T/C: 107 % of control
[2]
  T/C: 104 % of control
dose: 200.0 mg/kg/injection, schedule: Q01DX009 (ip), vehicle: saline
  T/C: 93 % of control

## CC(CCC(=O)O)(c1ccc(OC(=O)Nc2cccc([N+](=O)[O-])c2)cc1)c1ccc(OC(=O)Nc2cccc([N+](=O)[O-])c2)cc1
[5]
  T/C: 98 % of control
[6]
  T/C: 91 % of control
